Results taken from ChEMBL document CHEMBL3880421, “Indazole compounds and pharmaceutical compositions for inhibiting protein kinases, and methods for their use” (2003).

Tests used:
[1] = Antiproliferative activity against VEGF-stimulated HUVEC cells assessed as reduction in cell viability at 0.5 nM preincubated for 1 hr followed by addition of VEGF measured after 72 hrs by MTT assay; type: functional; conditions: Homo sapiens
[2] = Antiproliferative activity against VEGF-stimulated HUVEC cells assessed as reduction in cell viability at 2 nM preincubated for 1 hr followed by addition of VEGF measured after 72 hrs by MTT assay; type: functional; conditions: Homo sapiens

Compound	inhibition at 0.0005 µM [1] [%]	inhibition at 0.002 µM [2] [%]
CN1CCN(CCCNC(=O)c2ccccc2Nc2ccc3c(/C=C/c4ccccn4)n[nH]c3c2)CC1	0	4
CC(CCc1ccccc1)NC(=O)c1ccccc1Nc1ccc2c(/C=C/c3ccccn3)n[nH]c2c1 (stereo unspecified)	50	40
O=C(NCC1CC1)c1ccccc1Nc1ccc2c(/C=C/c3ccccn3)n[nH]c2c1	25 to 35	53 to 69
CN(C)CCCCCCNC(=O)c1ccccc1Nc1ccc2c(/C=C/c3ccccn3)n[nH]c2c1	42	22
O=C(NCCCCO)c1ccccc1Nc1ccc2c(/C=C/c3ccccn3)n[nH]c2c1	35	40
CC(C)CCCC(C)NC(=O)c1ccccc1Nc1ccc2c(/C=C/c3ccccn3)n[nH]c2c1 (stereo unspecified)	20	32
CCCCCC(C)NC(=O)c1ccccc1Nc1ccc2c(/C=C/c3ccccn3)n[nH]c2c1 (stereo unspecified)	-1	14
CNC(=O)CNC(=O)c1ccccc1Nc1ccc2c(/C=C/c3ccccn3)n[nH]c2c1	-1	26
NC(=O)c1ccccc1Nc1ccc2c(/C=C/c3ccccn3)n[nH]c2c1	9	30
O=C(NCP(=O)(O)O)c1ccccc1Nc1ccc2c(/C=C/c3ccccn3)n[nH]c2c1	32	6
Cc1ccc(CNC(=O)c2ccccc2Nc2ccc3c(/C=C/c4ccccn4)n[nH]c3c2)cc1	20	92
O=C(NCC(F)(F)F)c1ccccc1Nc1ccc2c(/C=C/c3ccccn3)n[nH]c2c1	34 to 53	61 to 95
CC(=O)NCCNC(=O)c1ccccc1Nc1ccc2c(/C=C/c3ccccn3)n[nH]c2c1	15	27
O=C(Nc1nc[nH]n1)c1ccccc1Nc1ccc2c(/C=C/c3ccccn3)n[nH]c2c1	19	22
O=C(NCCc1ccccn1)c1ccccc1Nc1ccc2c(/C=C/c3ccccn3)n[nH]c2c1	49	91
C[C@H](CO)NC(=O)c1ccccc1Nc1ccc2c(/C=C/c3ccccn3)n[nH]c2c1	13	20
NS(=O)(=O)c1ccc(CNC(=O)c2ccccc2Nc2ccc3c(/C=C/c4ccccn4)n[nH]c3c2)cc1	1	13
Cc1ncc(CNC(=O)c2ccccc2Nc2ccc3c(/C=C/c4ccccn4)n[nH]c3c2)c(N)n1	16	17
N=C(N)CNC(=O)c1ccccc1Nc1ccc2c(/C=C/c3ccccn3)n[nH]c2c1	7	-1
O=C(Cc1ccccc1)NNC(=O)c1ccccc1Nc1ccc2c(/C=C/c3ccccn3)n[nH]c2c1	31	66
CN(NC(=O)c1ccccc1Nc1ccc2c(/C=C/c3ccccn3)n[nH]c2c1)c1ccccc1	16	37
Cc1cc(NC(=O)c2ccccc2Nc2ccc3c(/C=C/c4ccccn4)n[nH]c3c2)on1	26	31
O=C(NCCc1c[nH]cn1)c1ccccc1Nc1ccc2c(/C=C/c3ccccn3)n[nH]c2c1	23	-32

Compound	inhibition at 0.0005 µM [1] [%]	inhibition at 0.002 µM [2] [%]
O=C(NNC(=O)c1ccccc1Nc1ccc2c(/C=C/c3ccccn3)n[nH]c2c1)c1ccc[nH]1	60	99
CC(C)(C(=O)NNC(=O)c1ccccc1Nc1ccc2c(/C=C/c3ccccn3)n[nH]c2c1)n1cncn1	34	90
C=CCONC(=O)c1ccccc1Nc1ccc2c(/C=C/c3ccccn3)n[nH]c2c1	51 to 92	103 to 108
CCNC(=O)c1ccccc1Nc1ccc2c(/C=C/c3ccccn3)n[nH]c2c1	16	17
O=C(NCC(O)CO)c1ccccc1Nc1ccc2c(/C=C/c3ccccn3)n[nH]c2c1 (stereo unspecified)	22	20
CN1CCCC1CCNC(=O)c1ccccc1Nc1ccc2c(/C=C/c3ccccn3)n[nH]c2c1 (stereo unspecified)	30	23
CCCC(C)NC(=O)c1ccccc1Nc1ccc2c(/C=C/c3ccccn3)n[nH]c2c1 (stereo unspecified)	29	92
COC(CNC(=O)c1ccccc1Nc1ccc2c(/C=C/c3ccccn3)n[nH]c2c1)OC	47	89
O=C(N[C@H](CO)Cc1c[nH]cn1)c1ccccc1Nc1ccc2c(/C=C/c3ccccn3)n[nH]c2c1	22	24
CC(C)C(C)NC(=O)c1ccccc1Nc1ccc2c(/C=C/c3ccccn3)n[nH]c2c1 (stereo unspecified)	19	55
O=C(NN1CCCCC1)c1ccccc1Nc1ccc2c(/C=C/c3ccccn3)n[nH]c2c1	27	17
O=C(NCCCN1CCCCCC1)c1ccccc1Nc1ccc2c(/C=C/c3ccccn3)n[nH]c2c1	25	-5
CC(C)(C)ONC(=O)c1ccccc1Nc1ccc2c(/C=C/c3ccccn3)n[nH]c2c1	-3	64
CN(C)CC(C)(C)CNC(=O)c1ccccc1Nc1ccc2c(/C=C/c3ccccn3)n[nH]c2c1	38	5
O=C(NNC(=O)c1ccccc1Nc1ccc2c(/C=C/c3ccccn3)n[nH]c2c1)c1ccccc1O	30	61
CC(O)CNC(=O)c1ccccc1Nc1ccc2c(/C=C/c3ccccn3)n[nH]c2c1 (stereo unspecified)	38	2
CCCC(CCC)NC(=O)c1ccccc1Nc1ccc2c(/C=C/c3ccccn3)n[nH]c2c1	1	52
O=C(NCCC1OCCO1)c1ccccc1Nc1ccc2c(/C=C/c3ccccn3)n[nH]c2c1	38	68
O=C(NCc1cccnc1)c1ccccc1Nc1ccc2c(/C=C/c3ccccn3)n[nH]c2c1	30	78
CC(C)(N)CNC(=O)c1ccccc1Nc1ccc2c(/C=C/c3ccccn3)n[nH]c2c1	31	3
COC[C@@H]1CCCN1NC(=O)c1ccccc1Nc1ccc2c(/C=C/c3ccccn3)n[nH]c2c1	13	7
O=C(Nc1nncs1)c1ccccc1Nc1ccc2c(/C=C/c3ccccn3)n[nH]c2c1	44	28
CN(NC(=O)c1ccccc1Nc1ccc2c(/C=C/c3ccccn3)n[nH]c2c1)C(N)=S	12	29

Compound	inhibition at 0.0005 µM [1] [%]	inhibition at 0.002 µM [2] [%]
CCN(CC)CCCCNC(=O)c1ccccc1Nc1ccc2c(/C=C/c3ccccn3)n[nH]c2c1	22	36
CC(CO)NC(=O)c1ccccc1Nc1ccc2c(/C=C/c3ccccn3)n[nH]c2c1 (stereo unspecified)	19	28
Cc1noc(NC(=O)c2ccccc2Nc2ccc3c(/C=C/c4ccccn4)n[nH]c3c2)c1C	15	36
O=C(NCC1CCCO1)c1ccccc1Nc1ccc2c(/C=C/c3ccccn3)n[nH]c2c1 (stereo unspecified)	23	44
O=C(NO)c1ccccc1Nc1ccc2c(/C=C/c3ccccn3)n[nH]c2c1	7	25
CCC(CO)NC(=O)c1ccccc1Nc1ccc2c(/C=C/c3ccccn3)n[nH]c2c1 (stereo unspecified)	22	23
O=C(NCCN1CCCCC1)c1ccccc1Nc1ccc2c(/C=C/c3ccccn3)n[nH]c2c1	5	19
CCOCCCNC(=O)c1ccccc1Nc1ccc2c(/C=C/c3ccccn3)n[nH]c2c1	44	97
O=C(NOCC(=O)N1CCOCC1)c1ccccc1Nc1ccc2c(/C=C/c3ccccn3)n[nH]c2c1	15	-1
CCOCCNC(=O)c1ccccc1Nc1ccc2c(/C=C/c3ccccn3)n[nH]c2c1	53	75
O=C(NC(CO)CO)c1ccccc1Nc1ccc2c(/C=C/c3ccccn3)n[nH]c2c1	48	8
O=C(NCCS(=O)(=O)O)c1ccccc1Nc1ccc2c(/C=C/c3ccccn3)n[nH]c2c1	16	21
Cc1cnc(NC(=O)c2ccccc2Nc2ccc3c(/C=C/c4ccccn4)n[nH]c3c2)s1	20	92
CC(C)CCC(C)NC(=O)c1ccccc1Nc1ccc2c(/C=C/c3ccccn3)n[nH]c2c1 (stereo unspecified)	6	44
O=C(NCCN1CCCC1)c1ccccc1Nc1ccc2c(/C=C/c3ccccn3)n[nH]c2c1	40	31
CC(CNC(=O)c1ccccc1Nc1ccc2c(/C=C/c3ccccn3)n[nH]c2c1)c1ccccc1 (stereo unspecified)	26	83
CCOC(CNC(=O)c1ccccc1Nc1ccc2c(/C=C/c3ccccn3)n[nH]c2c1)OCC	11	47
Cc1cc(NNC(=O)c2ccccc2Nc2ccc3c(/C=C/c4ccccn4)n[nH]c3c2)nc(C)n1	32	35
O=C(NC1CC1)c1ccccc1Nc1ccc2c(/C=C/c3ccccn3)n[nH]c2c1	59	97
O=C(Nc1cc[nH]n1)c1ccccc1Nc1ccc2c(/C=C/c3ccccn3)n[nH]c2c1	20	25
N#CCNC(=O)c1ccccc1Nc1ccc2c(/C=C/c3ccccn3)n[nH]c2c1	18	40
O=C(NC1OCCO1)c1ccccc1Nc1ccc2c(/C=C/c3ccccn3)n[nH]c2c1	35	63
